# Values quoted from earlier work in patent US20150290439A1, “METHODS FOR BILATERAL CENTRAL AUTONOMIC NEUROMODULATION” (priority 2014, published 2015).
# What was measured:
# [1] = not given; remark: listed apart in the source
# [2] = biological target: calcitonin gene-related peptide receptor (Homo sapiens, UniProt O60894+Q16602)
# [3] = reason for discontinuation
# Chain of calcitonin gene-related peptide receptor (Q16602 23-461): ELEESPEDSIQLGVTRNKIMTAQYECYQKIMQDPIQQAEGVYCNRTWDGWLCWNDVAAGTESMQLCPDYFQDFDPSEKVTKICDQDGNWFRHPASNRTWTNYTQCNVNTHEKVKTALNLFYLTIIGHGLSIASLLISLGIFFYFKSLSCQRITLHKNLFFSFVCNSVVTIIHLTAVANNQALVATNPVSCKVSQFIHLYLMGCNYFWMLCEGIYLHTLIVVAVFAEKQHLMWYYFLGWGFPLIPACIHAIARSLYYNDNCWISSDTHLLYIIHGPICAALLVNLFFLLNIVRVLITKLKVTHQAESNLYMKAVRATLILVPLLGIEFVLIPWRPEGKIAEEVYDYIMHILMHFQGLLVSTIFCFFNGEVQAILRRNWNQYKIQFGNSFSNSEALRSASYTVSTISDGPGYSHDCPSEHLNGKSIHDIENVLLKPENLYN
# Chain of calcitonin gene-related peptide receptor (O60894 27-148): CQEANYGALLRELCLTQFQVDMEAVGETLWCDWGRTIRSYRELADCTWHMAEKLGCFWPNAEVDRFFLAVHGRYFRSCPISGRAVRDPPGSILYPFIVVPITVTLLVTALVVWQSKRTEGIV
smiles,measurement,setting,value
Cc1cc(C[C@@H](OC(=O)N2CCC(N3CCc4ccccc4NC3=O)CC2)C(=O)N2CCC(N3CCOCC3)CC2)cc(C)c1O [BI44370A],efficacy in Phase 2 clinical study,,efficacy demonstrated
N[C@@H]1c2cccnc2[C@H](OC(=O)N2CCC(n3c(=O)[nH]c4ncccc43)CC2)CC[C@H]1c1cccc(F)c1F [BMS-927711],efficacy of the highest tested dose,[1]; 600 mg,no additional benefit over the doses of 75 mg and 150 mg
same,secondary endpoints versus placebo,"[1]; Phase 2b, acute migraine",most (and sometimes all) doses were superior to placebo
same,tolerability,[1]; acute dosing,placebo-like
same,primary efficacy endpoint: proportion of pain-free subjects at 2 hours post dose,"[1]; all doses, compared with sumatriptan, study not powered for direct comparisons",numerically inferior to sumatriptan
same,efficacy as a function of dose,[1]; doses up to 300 mg,increased up to the dose of 75 mg when a plateau effect seemed to have been reached for doses between 75 mg and 300 mg
same,serious adverse events,[1]; in the trial,No serious adverse event was reported
same,photophobia and phonophobia,[1]; most effective doses,significantly improved
same,secondary endpoints versus sumatriptan,[1]; most effective doses,numerically superior to sumatriptan
same,efficacy of a single dose,[1]; single dose,has been demonstrated
O=C(CN1C(=O)C2(CCCC2)NC[C@H]1c1cc(F)cc(F)c1)Nc1ccc2c(c1)C[C@@]1(C2)C(=O)Nc2ncccc21 [MK-3207],potency relative to telcagepant,[2],significantly more potent than telcagepant
same,liver toxicity,[3],concerns of liver toxicity
O=C(N[C@@H]1CC[C@@H](c2cccc(F)c2F)CN(CC(F)(F)F)C1=O)N1CCC(n2c(=O)[nH]c3ncccc32)CC1 [Telcagepant],liver toxicity,[3],concerns of liver toxicity after frequent use
